The values below come from PubChem BioAssay (NCI).

Each structure is given as a SMILES string.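 Grown in 96-well plates, cells were treated for 48 hours with each compound at five concentrations. Insufficient inhibition: endpoint recorded as highest concentration tested. GI50 marks 50% less growth. TGI: total growth inhibition.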

The first experiment concerns NCI-H460 lung. Put plainly: growth of human tumour cells (NCI), 48 h.
As for `CCc1c(Oc2ccc(C(C)=O)cc2)c2ccccc2[nH]c1=O`, the GI50 was 18.7 µM and the TGI was determined as 65.7 µM.

On to `Cn1c(N2NC(=O)C(N=Nc3ccc(S(N)(=O)=O)cc3)C2=O)nc(-c2ccco2)c(C#N)c1=O` (stereo unspecified), for which the GI50 was > 50 µM and the TGI is > 50 µM.

On to `NCC(=O)NS(=O)(=O)OC[C@H]1O[C@@H](n2cnc3c(N)ncnc32)[C@H](O)[C@@H]1O`, for which the GI50 is 3.23 µM and the TGI was determined as 10.1 µM.

`Cc1c(C(=O)N/N=C/c2ccc(Cl)cc2)nnn1-c1ccnc2c(C(F)(F)F)cccc12`: the GI50 was 4.49 µM and the TGI stood at 15.8 µM.

With `Cc1nn(CN2CCN(C)CC2)c(=S)n1/N=C/c1cccc2ccccc12`, the GI50 was 20.3 µM and the TGI amounted to 41.6 µM.

Turning to `N#C/C(=C1C=C/C(=N/O)C(Br)=C/1)c1ccccc1`, the GI50 was 2.89 µM and the TGI amounted to 8.8 µM.

As for `CN(C)CCNc1cc(-c2ccccc2)nc2ccccc12`, the GI50 is 3.5 µM and the TGI is 12.8 µM.

As to `COc1cccc(/C=N/NC(=O)c2ccccc2Nc2ccnc(C(F)(F)F)c2)c1O`, the GI50 is 0.262 µM and the TGI was determined as 8.26 µM.

As to `CN1CCN(Cc2ccc(NC(=O)c3cncc(C#Cc4cnc(N)c5ccc(C#N)cc45)c3)cc2C(F)(F)F)CC1`, the GI50 is 0.0976 µM and the TGI came to 1.1 µM.

With `COC(=O)c1cc2c3ccccc3[nH]c2c2ncccc12`, the GI50 is 51.4 µM and the TGI was > 100 µM.

The subject of the next experiment is OVCAR-3 ovarian. Put plainly: growth of human tumour cells (NCI), 48 h.
Take `CCc1c(Oc2ccc(C(C)=O)cc2)c2ccccc2[nH]c1=O`: the GI50 is 26 µM and the TGI was 80.9 µM.

`Cn1c(N2NC(=O)C(N=Nc3ccc(S(N)(=O)=O)cc3)C2=O)nc(-c2ccco2)c(C#N)c1=O` (stereo unspecified): the GI50 is 13.4 µM and the TGI was > 50 µM.

Take `NCC(=O)NS(=O)(=O)OC[C@H]1O[C@@H](n2cnc3c(N)ncnc32)[C@H](O)[C@@H]1O`: the GI50 was 2.01 µM and the TGI is 4.48 µM.

In the case of `Cc1c(C(=O)N/N=C/c2ccc(Cl)cc2)nnn1-c1ccnc2c(C(F)(F)F)cccc12`, the GI50 is 12 µM and the TGI came to 26.4 µM.

Consider `Cc1nn(CN2CCN(C)CC2)c(=S)n1/N=C/c1cccc2ccccc12`, for which the GI50 is 18 µM and the TGI worked out at 36 µM.

As for `N#C/C(=C1C=C/C(=N/O)C(Br)=C/1)c1ccccc1`, the GI50 is 3.48 µM and the TGI was 11.4 µM.

Consider `CN(C)CCNc1cc(-c2ccccc2)nc2ccccc12`, for which the GI50 is 8.9 µM and the TGI was found to be 33.1 µM.

As to `COc1cccc(/C=N/NC(=O)c2ccccc2Nc2ccnc(C(F)(F)F)c2)c1O`, the GI50 is 0.169 µM and the TGI was 43.9 µM.

Consider `CN1CCN(Cc2ccc(NC(=O)c3cncc(C#Cc4cnc(N)c5ccc(C#N)cc45)c3)cc2C(F)(F)F)CC1`, for which the GI50 is 0.331 µM and the TGI amounted to 1.45 µM.

For the compound `COC(=O)c1cc2c3ccccc3[nH]c2c2ncccc12`, the GI50 is > 100 µM and the TGI is > 100 µM.

Take `O=C1c2cccc(NCCN=Cc3cc(O)ccc3O)c2C(=O)c2c(NCCN=Cc3cc(O)ccc3O)cccc21`: the GI50 was 1.63 µM and the TGI was determined as 4.28 µM.

In another experiment the test system is SK-MEL-28 melanoma. Nature of the experiment: growth of human tumour cells (NCI), 48 h.
Regarding `CCc1c(Oc2ccc(C(C)=O)cc2)c2ccccc2[nH]c1=O`, the GI50 was 50.7 µM and the TGI is > 100 µM.

Consider `Cn1c(N2NC(=O)C(N=Nc3ccc(S(N)(=O)=O)cc3)C2=O)nc(-c2ccco2)c(C#N)c1=O` (stereo unspecified), for which the GI50 is 11.7 µM and the TGI turned out to be 45.5 µM.

`NCC(=O)NS(=O)(=O)OC[C@H]1O[C@@H](n2cnc3c(N)ncnc32)[C@H](O)[C@@H]1O`: the GI50 is 1.93 µM and the TGI is 4.14 µM.

`Cc1c(C(=O)N/N=C/c2ccc(Cl)cc2)nnn1-c1ccnc2c(C(F)(F)F)cccc12`: the GI50 was 14.4 µM and the TGI worked out at 38.5 µM.

Consider `Cc1nn(CN2CCN(C)CC2)c(=S)n1/N=C/c1cccc2ccccc12`, for which the GI50 was 17 µM and the TGI came out at 34.3 µM.

On to `N#C/C(=C1C=C/C(=N/O)C(Br)=C/1)c1ccccc1`, for which the GI50 was 10.3 µM and the TGI turned out to be 31.1 µM.

Regarding `CN(C)CCNc1cc(-c2ccccc2)nc2ccccc12`, the GI50 was 13.4 µM and the TGI amounted to 28.5 µM.

With `COc1cccc(/C=N/NC(=O)c2ccccc2Nc2ccnc(C(F)(F)F)c2)c1O`, the GI50 is 1.48 µM and the TGI is > 34.7 µM.

Take `CN1CCN(Cc2ccc(NC(=O)c3cncc(C#Cc4cnc(N)c5ccc(C#N)cc45)c3)cc2C(F)(F)F)CC1`: the GI50 was 0.0273 µM and the TGI turned out to be 0.519 µM.

Regarding `COC(=O)c1cc2c3ccccc3[nH]c2c2ncccc12`, the GI50 was 85.8 µM and the TGI is > 100 µM.

In the case of `O=C1c2cccc(NCCN=Cc3cc(O)ccc3O)c2C(=O)c2c(NCCN=Cc3cc(O)ccc3O)cccc21`, the GI50 is 1.77 µM and the TGI was determined as 3.66 µM.

The subject of the next experiment is UACC-257 melanoma. Nature of the experiment: growth of human tumour cells (NCI), 48 h.
In the case of `CCc1c(Oc2ccc(C(C)=O)cc2)c2ccccc2[nH]c1=O`, the GI50 was 14.5 µM and the TGI turned out to be 55.1 µM.

For the compound `Cn1c(N2NC(=O)C(N=Nc3ccc(S(N)(=O)=O)cc3)C2=O)nc(-c2ccco2)c(C#N)c1=O` (stereo unspecified), the GI50 is > 50 µM and the TGI is > 50 µM.

With `Cc1c(C(=O)N/N=C/c2ccc(Cl)cc2)nnn1-c1ccnc2c(C(F)(F)F)cccc12`, the GI50 was 2.89 µM and the TGI turned out to be 6.91 µM.

Regarding `Cc1nn(CN2CCN(C)CC2)c(=S)n1/N=C/c1cccc2ccccc12`, the GI50 was 22.2 µM and the TGI is 44.6 µM.

Turning to `N#C/C(=C1C=C/C(=N/O)C(Br)=C/1)c1ccccc1`, the GI50 was 6.61 µM and the TGI is 55.9 µM.

As to `CN(C)CCNc1cc(-c2ccccc2)nc2ccccc12`, the GI50 was 11.5 µM and the TGI stood at 26.7 µM.

On to `COc1cccc(/C=N/NC(=O)c2ccccc2Nc2ccnc(C(F)(F)F)c2)c1O`, for which the GI50 is 0.346 µM and the TGI amounted to 5.88 µM.

In the case of `CN1CCN(Cc2ccc(NC(=O)c3cncc(C#Cc4cnc(N)c5ccc(C#N)cc45)c3)cc2C(F)(F)F)CC1`, the GI50 is 0.136 µM and the TGI was 3.09 µM.

For the compound `COC(=O)c1cc2c3ccccc3[nH]c2c2ncccc12`, the GI50 is > 100 µM and the TGI was > 100 µM.

Consider `O=C1c2cccc(NCCN=Cc3cc(O)ccc3O)c2C(=O)c2c(NCCN=Cc3cc(O)ccc3O)cccc21`, for which the GI50 is 3.1 µM and the TGI is 10.8 µM.

For a further experiment, the system named is UACC-62 melanoma. Put plainly: growth of human tumour cells (NCI), 48 h.
For `CCc1c(Oc2ccc(C(C)=O)cc2)c2ccccc2[nH]c1=O`, the GI50 was 3.74 µM and the TGI turned out to be 16.5 µM.

With `Cn1c(N2NC(=O)C(N=Nc3ccc(S(N)(=O)=O)cc3)C2=O)nc(-c2ccco2)c(C#N)c1=O` (stereo unspecified), the GI50 was 39.4 µM and the TGI is > 50 µM.

On to `NCC(=O)NS(=O)(=O)OC[C@H]1O[C@@H](n2cnc3c(N)ncnc32)[C@H](O)[C@@H]1O`, for which the GI50 is 1.85 µM and the TGI was 3.78 µM.

Take `Cc1c(C(=O)N/N=C/c2ccc(Cl)cc2)nnn1-c1ccnc2c(C(F)(F)F)cccc12`: the GI50 is 10.6 µM and the TGI was 28.4 µM.

For the compound `Cc1nn(CN2CCN(C)CC2)c(=S)n1/N=C/c1cccc2ccccc12`, the GI50 is 17.5 µM and the TGI came out at 33.9 µM.

In the case of `N#C/C(=C1C=C/C(=N/O)C(Br)=C/1)c1ccccc1`, the GI50 was 2.97 µM and the TGI was 16 µM.

As to `CN(C)CCNc1cc(-c2ccccc2)nc2ccccc12`, the GI50 was 13.7 µM and the TGI was found to be 30 µM.

For the compound `COc1cccc(/C=N/NC(=O)c2ccccc2Nc2ccnc(C(F)(F)F)c2)c1O`, the GI50 was 0.378 µM and the TGI is 10.6 µM.

Regarding `CN1CCN(Cc2ccc(NC(=O)c3cncc(C#Cc4cnc(N)c5ccc(C#N)cc45)c3)cc2C(F)(F)F)CC1`, the GI50 was 0.0279 µM and the TGI amounted to 0.422 µM.

For the compound `COC(=O)c1cc2c3ccccc3[nH]c2c2ncccc12`, the GI50 is > 100 µM and the TGI is > 100 µM.

As for `O=C1c2cccc(NCCN=Cc3cc(O)ccc3O)c2C(=O)c2c(NCCN=Cc3cc(O)ccc3O)cccc21`, the GI50 is 1.68 µM and the TGI was 3.57 µM.
